The record followed here is patent publication US10457654B2 (GENENTECH, INC., priority 2017, dated 2019).

The structures appear in SMILES notation. Where a name gives a salt, the structure may show the parent alone.

Assay [1] deals with T1, hNav1.7 (Homo sapiens (Human), UniProt Q15858). The experiment in a line: Patch voltage clamp electrophysiology assay (EP), Syncropatch 384PE, CHO cells expressing Nav1.7. In kind it is cell-based. The note with it: holding potential -50 mV; […] compound incubation; read-out: EP_SP hNav1.7 (Ex. 243B) IC50. As to the method: Electrophysiological Assay (EP) (In Vitro Assay)
The following voltage clamp electrophysiology studies were performed on representative compounds using cells heterologously expressing Nav1.7 or Nav1.5 channels. cDNAs for Nav1.7 (NM_002977) and Nav1.5 (AC137587) were stably expressed in Chinese Hamstr Ovary (CHO) cells and CHL (Chinese Hamster Lung) cells respectively. […] Internal solution consists of (in mM): 110 […], 10 […], 20 EGTA, and 10 Hepes (pH adjusted to 7.2); and external solution contains (in mM): 60 NMDG, 80 NaCl, 4 KCl, 1 MgCl2, 2 CaCl2, 2 D-Glucose monohydrate, 10 Hepes (pH adjusted to 7.4 with NaOH).
The chip is moved into the measuring head and the instrument primes the chip with external and internal solutions. […] cells are added to the chip from a cell hotel, and a negative pressure of −50 mBar is applied to form a seal. Following treatment with seal enhancer solution and wash-off with external solution, negative pressure of −250 mbar is applied for 1 second to achieve the whole-cell configuration, followed by three washing steps in external solution. 20 μl of compounds is added to 40 μl in each well (1:3 dilution of compounds), and after mixing, 20 μl is removed so the volume is retained at 40 μl.
For voltage protocol, an holding potential of −50 mV is applied during the whole experiment. A depolarizing step is applied to −10 mV for 10 ms, followed by a hyperpolarization step to −150 mV for 20 ms to allow channel recovery from inactivation. A second depolarizing step is applied from −150 mV to −10 mV for 10 ms, where currents were measured to derive blocking effects of compounds. Inhibition is determined based on 7.5 min of compound incubation.
A general note: The patch-clamp technique gives a direct electrical read-out from membranes.
Target sequence in this assay (Q15858 other isoform, or with tags, fused parts or gaps): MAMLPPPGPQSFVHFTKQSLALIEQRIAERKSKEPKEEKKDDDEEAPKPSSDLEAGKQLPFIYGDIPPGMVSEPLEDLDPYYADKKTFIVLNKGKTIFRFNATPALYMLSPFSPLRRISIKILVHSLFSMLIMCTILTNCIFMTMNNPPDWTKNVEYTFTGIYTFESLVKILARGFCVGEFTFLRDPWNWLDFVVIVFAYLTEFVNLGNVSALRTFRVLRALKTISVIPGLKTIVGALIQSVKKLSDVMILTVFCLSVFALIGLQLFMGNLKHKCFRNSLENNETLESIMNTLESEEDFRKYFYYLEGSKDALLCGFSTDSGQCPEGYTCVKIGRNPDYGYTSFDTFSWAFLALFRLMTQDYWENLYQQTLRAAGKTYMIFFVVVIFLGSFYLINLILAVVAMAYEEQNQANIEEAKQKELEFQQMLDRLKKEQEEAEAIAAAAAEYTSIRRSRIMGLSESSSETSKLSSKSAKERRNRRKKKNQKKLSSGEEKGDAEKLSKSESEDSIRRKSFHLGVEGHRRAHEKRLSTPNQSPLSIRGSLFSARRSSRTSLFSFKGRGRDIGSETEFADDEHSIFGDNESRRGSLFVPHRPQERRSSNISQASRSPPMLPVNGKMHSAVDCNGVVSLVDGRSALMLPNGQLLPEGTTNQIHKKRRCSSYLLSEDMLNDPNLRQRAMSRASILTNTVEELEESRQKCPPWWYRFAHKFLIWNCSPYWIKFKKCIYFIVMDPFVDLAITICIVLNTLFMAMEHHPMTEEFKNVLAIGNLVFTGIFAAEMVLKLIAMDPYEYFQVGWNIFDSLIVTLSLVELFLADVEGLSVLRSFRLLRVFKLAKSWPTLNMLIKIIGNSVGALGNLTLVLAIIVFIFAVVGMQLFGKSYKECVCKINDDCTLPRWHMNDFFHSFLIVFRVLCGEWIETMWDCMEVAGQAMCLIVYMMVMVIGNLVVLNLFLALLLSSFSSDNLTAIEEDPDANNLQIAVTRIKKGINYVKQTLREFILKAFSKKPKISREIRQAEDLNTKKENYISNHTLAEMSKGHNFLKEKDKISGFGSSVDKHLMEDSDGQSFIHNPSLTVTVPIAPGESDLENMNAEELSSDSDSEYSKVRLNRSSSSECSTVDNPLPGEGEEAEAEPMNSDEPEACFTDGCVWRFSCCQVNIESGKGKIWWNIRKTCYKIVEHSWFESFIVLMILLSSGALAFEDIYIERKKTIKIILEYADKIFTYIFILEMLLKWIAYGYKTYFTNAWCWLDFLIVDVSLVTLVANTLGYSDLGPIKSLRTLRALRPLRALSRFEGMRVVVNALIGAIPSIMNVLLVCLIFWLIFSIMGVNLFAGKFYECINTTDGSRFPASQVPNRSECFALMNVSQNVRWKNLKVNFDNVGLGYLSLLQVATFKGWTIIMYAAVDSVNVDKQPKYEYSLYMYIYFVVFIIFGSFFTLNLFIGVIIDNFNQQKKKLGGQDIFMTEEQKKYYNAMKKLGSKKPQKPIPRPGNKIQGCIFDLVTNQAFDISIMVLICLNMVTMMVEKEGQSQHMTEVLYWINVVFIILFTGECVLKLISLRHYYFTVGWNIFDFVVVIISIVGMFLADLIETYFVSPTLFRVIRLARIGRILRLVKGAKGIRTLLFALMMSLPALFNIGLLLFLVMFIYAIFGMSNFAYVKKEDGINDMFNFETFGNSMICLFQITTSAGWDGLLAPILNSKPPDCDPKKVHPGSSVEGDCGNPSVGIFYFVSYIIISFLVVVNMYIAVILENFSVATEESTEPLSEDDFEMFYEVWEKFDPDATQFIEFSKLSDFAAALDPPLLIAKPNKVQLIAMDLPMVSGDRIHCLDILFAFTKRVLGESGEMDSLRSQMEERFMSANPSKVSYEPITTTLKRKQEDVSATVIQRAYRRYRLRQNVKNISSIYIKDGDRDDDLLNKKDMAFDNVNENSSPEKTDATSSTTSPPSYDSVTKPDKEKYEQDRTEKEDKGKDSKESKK

Assay [2] concerns the target T1, hNav1.7. The experiment in a line: Tritiated compound binding to membranes from cells expressing hNav1.7 and the β1 subunit, modified protocol (LBA, Ex. 243B). As to conditions: 300 pM [3H]compound, room temperature, read-out: Nav1.7 LBA (Ex. 243B) IC50.
Target sequence in this assay (Q15858 whole entry, looked up): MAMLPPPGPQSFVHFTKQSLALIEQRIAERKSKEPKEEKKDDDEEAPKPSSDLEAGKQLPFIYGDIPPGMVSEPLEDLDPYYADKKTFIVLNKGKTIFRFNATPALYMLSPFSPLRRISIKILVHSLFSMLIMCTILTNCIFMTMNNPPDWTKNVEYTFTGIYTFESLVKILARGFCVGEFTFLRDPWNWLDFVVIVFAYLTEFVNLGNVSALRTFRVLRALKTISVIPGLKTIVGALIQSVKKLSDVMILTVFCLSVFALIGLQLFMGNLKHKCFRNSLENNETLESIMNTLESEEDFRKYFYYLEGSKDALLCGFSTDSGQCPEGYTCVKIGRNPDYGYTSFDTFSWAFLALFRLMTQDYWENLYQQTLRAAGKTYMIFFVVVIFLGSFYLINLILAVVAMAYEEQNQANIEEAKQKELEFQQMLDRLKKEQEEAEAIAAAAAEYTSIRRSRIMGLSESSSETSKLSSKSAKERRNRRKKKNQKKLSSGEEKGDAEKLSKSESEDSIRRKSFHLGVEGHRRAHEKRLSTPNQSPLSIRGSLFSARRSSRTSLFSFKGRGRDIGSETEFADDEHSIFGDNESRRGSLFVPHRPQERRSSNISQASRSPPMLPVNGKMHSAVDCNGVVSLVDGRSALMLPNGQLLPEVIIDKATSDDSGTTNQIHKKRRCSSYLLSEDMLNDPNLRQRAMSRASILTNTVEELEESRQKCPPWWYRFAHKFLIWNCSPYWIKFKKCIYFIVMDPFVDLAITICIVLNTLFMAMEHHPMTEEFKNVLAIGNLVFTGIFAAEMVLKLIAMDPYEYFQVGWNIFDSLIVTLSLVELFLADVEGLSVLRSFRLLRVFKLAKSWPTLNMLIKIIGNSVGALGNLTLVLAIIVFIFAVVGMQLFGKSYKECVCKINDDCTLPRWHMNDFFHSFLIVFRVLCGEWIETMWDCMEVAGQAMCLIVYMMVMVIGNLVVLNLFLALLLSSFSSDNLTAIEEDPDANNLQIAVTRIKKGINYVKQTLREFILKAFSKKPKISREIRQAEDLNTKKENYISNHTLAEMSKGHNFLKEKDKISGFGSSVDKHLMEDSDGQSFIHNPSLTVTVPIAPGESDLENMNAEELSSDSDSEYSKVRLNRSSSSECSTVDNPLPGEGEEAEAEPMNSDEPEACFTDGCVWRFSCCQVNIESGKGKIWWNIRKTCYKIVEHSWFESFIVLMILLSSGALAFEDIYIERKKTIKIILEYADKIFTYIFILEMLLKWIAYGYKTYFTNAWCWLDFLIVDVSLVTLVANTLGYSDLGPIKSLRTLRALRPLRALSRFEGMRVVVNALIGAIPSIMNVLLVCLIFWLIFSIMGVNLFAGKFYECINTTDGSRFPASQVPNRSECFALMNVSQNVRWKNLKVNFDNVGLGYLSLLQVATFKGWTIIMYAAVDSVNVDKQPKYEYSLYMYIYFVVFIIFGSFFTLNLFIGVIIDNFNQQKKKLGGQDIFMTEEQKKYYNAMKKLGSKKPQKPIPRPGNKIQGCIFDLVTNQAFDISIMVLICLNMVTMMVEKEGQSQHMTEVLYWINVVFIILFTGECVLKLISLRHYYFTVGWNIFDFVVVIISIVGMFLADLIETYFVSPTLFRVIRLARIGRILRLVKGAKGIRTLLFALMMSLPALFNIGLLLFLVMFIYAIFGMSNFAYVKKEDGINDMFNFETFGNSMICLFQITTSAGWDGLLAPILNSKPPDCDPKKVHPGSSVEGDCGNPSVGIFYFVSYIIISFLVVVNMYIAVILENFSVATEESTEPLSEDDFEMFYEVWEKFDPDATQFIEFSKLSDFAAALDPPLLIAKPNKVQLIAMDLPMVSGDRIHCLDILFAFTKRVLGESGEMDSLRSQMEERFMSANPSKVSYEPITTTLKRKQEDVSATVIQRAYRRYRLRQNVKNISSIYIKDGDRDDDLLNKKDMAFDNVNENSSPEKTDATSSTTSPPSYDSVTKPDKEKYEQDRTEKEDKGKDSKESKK
Target sequence in this assay (Q07699 whole entry partner, looked up): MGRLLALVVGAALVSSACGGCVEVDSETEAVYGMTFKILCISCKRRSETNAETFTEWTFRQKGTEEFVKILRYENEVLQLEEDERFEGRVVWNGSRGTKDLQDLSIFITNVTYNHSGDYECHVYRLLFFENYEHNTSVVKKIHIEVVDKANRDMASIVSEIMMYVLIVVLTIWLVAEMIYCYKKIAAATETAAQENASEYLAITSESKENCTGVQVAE

A word on the IC50: it is the concentration that gives 50% inhibition. As for `CN1CC[C@@H]1C(=O)N(C)[C@H]1CCCC[C@@H]1Nc1cc(F)c(S(=O)(=O)Nc2nccs2)cc1Cl` [Example 205, (R)—N-((1S,2S)-2-((2-Chloro-5-fluoro-4-(N-(thiazol-2-yl)sulfamoyl)phenyl)amino)cyclohexyl)-N,1-dimethylazetidine-2-carboxamide], the IC50 in assay [1] came to 32.7 nM; in assay [2], 556 nM.

For `CN(C)[C@H]1CCCC[C@@H]1Nc1cc(F)c(S(=O)(=O)Nc2cccc(F)n2)cc1C1CC1` [Example 107, 5-cyclopropyl-4-(((1S,2S)-2-(dimethylamino)cyclohexyl)amino)-2-fluoro-N-(6-fluoropyridin-2-yl)benzenesulfonamide formate], the IC50 in assay [1] was determined as 18 nM; in assay [2], 137 nM.

Take `O=S(=O)(Nc1ccncn1)c1cc(Cl)c(N[C@H]2CC[C@H](c3cccc(C(F)(F)F)c3)C[C@@H]2N2CCCC2)cc1F` [Example 242, 5-chloro-2-fluoro-N-(pyrimidin-4-yl)-4-(((1S,2S,4S)-2-(pyrrolidin-1-yl)-4-(3 (trifluoromethyl)phenyl)cyclohexyl)amino)benzenesulfonamide]: the IC50 in assay [1] turned out to be 0.182 nM; in assay [2], 0.428 nM.

`N#C[C@@H]1CCN([C@H]2CCCC[C@@H]2Nc2cc(F)c(S(=O)(=O)Nc3nccs3)cc2Cl)C1` [Example 161, 5-Chloro-4-(((1S,2S)-2-((R)-3-cyanopyrrolidin-1-yl)cyclohexyl)amino)-2-fluoro-N-(thiazol-2-yl)benzenesulfonamide formate]: the IC50 in assay [1] was 3.03 nM; in assay [2], 187 nM.

`CCN(C)[C@H]1CCCC[C@@H]1Nc1cc(F)c(S(=O)(=O)Nc2nc(C)cs2)cc1Cl` [Example 102, 5-chloro-4-(((1S,2S)-2-(ethyl(methyl)amino)cyclohexyl)amino)-2-fluoro-N-(4-methylthiazol-2-yl)benzenesulfonamide formate]: the IC50 in assay [1] was 66.5 nM; in assay [2] it was 424 nM.

As to `CN(C1CN(CC(F)(F)F)C1)[C@H]1CCCC[C@@H]1Nc1cc(F)c(S(=O)(=O)Nc2nccs2)cc1Cl` [Example 175, 5-Chloro-2-fluoro-4-(((1S,2S)-2-(methyl(1-(2,2,2-trifluoroethyl)azetidin-3-yl)amino)cyclohexyl)amino)-N-(thiazol-2-yl)benzenesulfonamide], the IC50 in assay [1] stood at 21.7 nM; in assay [2] it was 316 nM.

`CN(C)[C@H]1C[C@@H](c2cccc(C(F)(F)F)c2)CC[C@@H]1Nc1cc(F)c(S(=O)(=O)Nc2ccncn2)cc1Cl` [Example 181, 5-chloro-4-[[(1S,2S,4S)-2-(dimethylamino)-4-[3-(trifluoromethyl)phenyl]cyclohexyl]amino]-2-fluoro-N-pyrimidin-4-yl-benzenesulfonamide]: the figures for the IC50 in assay [1] and in assay [2] were 0.783 nM and 1.31 nM, respectively.

`CN(C[C@H](O)C1CC1)[C@H]1CCCC[C@@H]1Nc1cc(F)c(S(=O)(=O)Nc2nccs2)cc1Cl` [Example 143, 5-Chloro-4-(((1S,2S)-2-(((R)-2-cyclopropyl-2-hydroxyethyl)(methyl)amino)cyclohexyl)amino)-2-fluoro-N-(thiazol-2-yl)benzenesulfonamide]: the IC50 in assay [1] stood at 19.3 nM; in assay [2] it was 418 nM.

As for `CN(C)[C@H]1C[C@@H](c2cccc(C(F)(F)F)c2)CC[C@@H]1Nc1cc(F)c(S(=O)(=O)Nc2ccncn2)cc1Br` [Example 227, 5-Bromo-4-(((1S,2S,4S)-2-(dimethylamino)-4-(3-(trifluoromethyl)phenyl)cyclohexyl)amino)-2-fluoro-N-(pyrimidin-4-yl)benzenesulfonamide], the IC50 in assay [1] stood at 1.19 nM; in assay [2] it was 0.69 nM.

For the compound `O=S(=O)(Nc1ccncn1)c1cc(Cl)c(N[C@H]2CCCC[C@@H]2N2CC3C(C2)C3(F)F)cc1F` (stereo partly drawn) [Example 183, 5-chloro-4-(((1S,2S)-2-(6,6-difluoro-3-azabicyclo[3.1.0]hexan-3-yl)cyclohexyl)amino)-2-fluoro-N-(pyrimidin-4-yl)benzenesulfonamide], the IC50 in assay [1] worked out at 12 nM; in assay [2], 277 nM.

Take `CN(CCO)[C@H]1C[C@@H](C(F)(F)F)CC[C@@H]1Nc1cc(F)c(S(=O)(=O)Nc2cccc(F)n2)cc1Cl` [Example 158, 5-chloro-2-fluoro-N-(6-fluoropyridin-2-yl)-4-(((1S,2S,4S)-2-((2-hydroxyethyl)(methyl)amino)-4-(trifluoromethyl)cyclohexyl)amino)benzenesulfonamide formate]: the IC50 was determined as 2.71 nM in assay [1] and 5.96 nM in assay [2].

In the case of `CN(C)[C@H]1CC=C(C(F)(F)F)C[C@@H]1Nc1cc(F)c(S(=O)(=O)Nc2nccs2)cc1Cl` [Example 130, 5-chloro-4-(((1S,6S)-6-(dimethylamino)-3-(trifluoromethyl)cyclohex-3-en-1-yl)amino)-2-fluoro-N-(thiazol-2-yl)benzenesulfonamide], the IC50 was 9.92 nM in assay [1] and 75.9 nM in assay [2].

`CN(C[C@@H](O)C1CC1)[C@H]1CCCC[C@@H]1Nc1cc(F)c(S(=O)(=O)Nc2nccs2)cc1Cl` [Example 139, 5-Chloro-4-(((1S,2S)-2-(((S)-2-cyclopropyl-2-hydroxyethyl)(methyl)amino)cyclohexyl)amino)-2-fluoro-N-(thiazol-2-yl)benzenesulfonamide]: the IC50 worked out at 45.6 nM in assay [1] and 291 nM in assay [2].

For the compound `CN(C)[C@@H]1CC2C(C[C@H]1Nc1cc(F)c(S(=O)(=O)Nc3nccs3)cc1Cl)C2(F)F` (stereo in doubt) [Example 210, 5-Chloro-4-(((1S,3R,4R,6R)-4-(dimethylamino)-7,7-difluorobicyclo[4.1.0]heptan-3-yl)amino)-2-fluoro-N-(thiazol-2-yl)benzenesulfonamide], the IC50 in assay [1] turned out to be 415 nM; in assay [2] it was 2000 nM.

As for `CN(C)[C@H]1CN(c2cccc(C(F)(F)F)c2)CC[C@@H]1Nc1cc(F)c(S(=O)(=O)Nc2ccncn2)cc1Cl` [Example 233, 5-Chloro-4-(((3S,4S)-3-(dimethylamino)-1-(3-(trifluoromethyl)phenyl)piperidin-4-yl)amino)-2-fluoro-N-(pyrimidin-4-yl)benzenesulfonamide], the IC50 in assay [1] came out at 1.71 nM; in assay [2], 9.82 nM.

For the compound `Cc1csc(NS(=O)(=O)c2cc(Cl)c(N[C@H]3CC[C@H](C(F)(F)F)C[C@@H]3N(C)C)cc2F)n1` [Example 171, 5-chloro-4-(((1S,2S,4S)-2-(dimethylamino)-4-(trifluoromethyl)cyclohexyl)amino)-2-fluoro-N-(4-methylthiazol-2-yl)benzenesulfonamide formate], the IC50 in assay [1] was found to be 12.2 nM; in assay [2] it was 255 nM.

As for `CN(C)[C@H]1C[C@@H]2C[C@@H]2C[C@@H]1Nc1cc(F)c(S(=O)(=O)Nc2nccs2)cc1Cl` [Example 216], the half-maximal inhibitory concentration (IC50) in assay [1] turned out to be 4.77 nM; in assay [2], 72.1 nM.

On to `CN1CCC[C@H]1C(=O)N(C)[C@H]1CCCC[C@@H]1Nc1cc(F)c(S(=O)(=O)Nc2nccs2)cc1Cl` [Example 201, (S)—N-((1S,2S)-2-((2-chloro-5-fluoro-4-(N-(thiazol-2-yl)sulfamoyl)phenyl)amino)cyclohexyl)-N,1-dimethylpyrrolidine-2-carboxamide], for which the values for the IC50 in assay [1] and in assay [2] were 29.6 nM and 308 nM, respectively.

For `CN(C)[C@@H]1CC2C(C[C@H]1Nc1cc(F)c(S(=O)(=O)Nc3nccs3)cc1Cl)C2(F)F` (stereo in doubt) [Example 208, 5-Chloro-4-(((1R,3R,4R,6S)-4-(dimethylamino)-7,7-difluorobicyclo[4.1.0]heptan-3-yl)amino)-2-fluoro-N-(thiazol-2-yl)benzenesulfonamide], the IC50 in assay [1] came to 6.12 nM; in assay [2], 46.7 nM.

For the compound `CN(C)[C@H]1C[C@@H](C(F)(F)F)CC[C@@H]1Nc1cc(F)c(S(=O)(=O)Nc2ccncn2)cc1C1CC1` [Example 178, 5-cyclopropyl-4-(((1S,2S,4S)-2-(dimethylamino)-4-(trifluoromethyl)cyclohexyl)amino)-2-fluoro-N-(pyrimidin-4-yl)benzenesulfonamide], the IC50 in assay [1] worked out at 19.1 nM; in assay [2], 205 nM.

Take `CN(C)[C@H]1CC2C(C[C@@H]1Nc1cc(F)c(S(=O)(=O)Nc3nccs3)cc1Cl)C2(F)F` (stereo in doubt) [Example 207, 5-Chloro-4-(((1S,3S,4S,6R)-4-(dimethylamino)-7,7-difluorobicyclo[4.1.0]heptan-3-yl)amino)-2-fluoro-N-(thiazol-2-yl)benzenesulfonamide]: the figures for the IC50 in assay [1] and in assay [2] were 203 nM and 1600 nM, respectively.

In the case of `CN(C)[C@H]1C[C@@H](c2ccc(C(F)(F)F)cc2)CC[C@@H]1Nc1cc(F)c(S(=O)(=O)Nc2ccncn2)cc1Cl` [Example 224, 5-Chloro-4-(((1S,2S,4S)-2-(dimethylamino)-4-(4-(trifluoromethyl)phenyl)cyclohexyl)amino)-2-fluoro-N-(pyrimidin-4-yl)benzenesulfonamide], the IC50 in assay [1] is 2.36 nM; in assay [2], 8.33 nM.
